This data set in a line: Comparative ex vivo study of the percutaneous absorption of amitriptyline (Frantz cell). The data set is classed as in vitro ADME. To be noted: ex vivo human skin, topical application. Here is the method: Comparative ex vivo study of the percutaneous absorption of amitriptyline in a formulation A in aqueous gel form (invention) and in a formulation B in cream form (comparative).
Each of compositions A and B was applied on separate human skin samples. For each composition, the experiment was repeated 3 times with 3 skin samples from 3 different donors, i.e., 9 samples.
The skin samples are mounted in a Frantz cell and are heated to a surface temperature of 32° C.±1° C.
Composition A or B is spread evenly using a spatula on each skin sample at a rate of 10 mg per cell, corresponding to 5 mg/cm^2 of skin.
The skin samples are rinsed 16 hours after application.
Each skin sample was placed with a tweezers on a paper towel (dermis facing downward).
The stratum corneum is removed using adhesive strips.
After removing the stratum corneum, the sample is perforated. The epidermis is then separated from the dermis. Each of them is placed in separate bottles.
The different samples were then extracted.

Consider `CN(C)CCC=C1c2ccccc2CCc2ccccc21` [amitriptyline, Amitriptyline], for which the “systemic passage of amitriptyline” value is “less than 0.1 % of the administered dose”.

These data come from US20230103300A1, “TOPICAL PHARMACEUTICAL COMPOSITION IN GEL FORM COMPRISING AT LEAST AMI[…] USE IN THE TREATMENT OF CORONAVIRUS-INDUCED NEUROPATHIC PAIN” (AlgoTherapeutix, priority 2021, published 2023).
